Measurements taken from patent US11981750B2 (priority 2016, dated 2024).
Starred links: 1 amine or outer side, 2 acyl side, 3 side chain; linkers in the order of their positions; H or OH if unused. Non-standard residues stand in square brackets, D forms with d. Residues, ends and D or L forms follow the SMILES beside them. *: point of attachment. TtdDga = O=C(COCC(=O)[*:2])NCCCOCCOCCOCCCN[*:1]; Arachidoyl = CCCCCCCCCCCCCCCCCCCC(=O)*; NMeV = CN[CH](C(=O)O)C(C)C

Columns and labels:
[1] = tested on: PBMCs isolated from cows naturally infected with Map; assay: Flow cytometry of CD25+ T and B cells after PBMC stimulation with lipopeptides; assay type: cell-based, cattle
[2] = tested on: PBMCs isolated from control cows and cows naturally infected with Map; assay: Cytokine secretion by PBMCs after 24-hour stimulation with Map lipopeptides; assay type: cell-based, cattle; details: 1, 5, 10 μg/ml
Protocol: Peripheral blood mononuclear cells (PBMCs) were isolated from control non-infected (n=4) and cattle naturally infected with C-type Map (n=4) to determine if lipoproteins, L3P and L5P (structures disclosed in FIG. 9), can elicit immunological responses. Sixty ml of blood was collected via jugular venipuncture into a syringe containing 2× acid-citrate-dextrose to obtain PBMCs.
PBMCs were resuspended at a final concentration of 8×10^6/ml in complete medium consisting of RPMI-1640 with 2 mM 1-glutamine and 25 mM HEPES (Gibco, Grand Island, NY) and supplemented with 10% fetal calf serum (Gibco), 100λ penicillin-streptomycin (Gibco). Cells were plated in 24-well culture plates and incubated for 24 hr at 39° C. in 5% CO2 in a humidified atmosphere with the following treatment groups, nonstimulated (NS; negative control), pokeweed mitogen (PWM, 10 μg/ml, positive control; Sigma, St. Louis, MO), and four antigens that included whole cell sonicated extracts of Map strains K-10 and S397 (10 μg/ml); lipoproteins L3P and L5P (1, 5, 10 μg/ml concentrations). The lipoproteins had to be solubilized in 100% methanol to 1 mg/ml concentrations and then diluted in the complete medium to final concentrations indicated above. […] After a 24-hr stimulation, the supernatants were harvested by centrifugation at 400×g for 5 min. Supernatants were removed without disturbing the cells in culture and stored at −20° C. until cytokine measurement. Cytokines IFN-γ, IL-1, IL-2, IL-4, IL-6 and TNF-α were all measured using Ciraplex bovine multiplex cytokine arrays (Aushon Biosystems, Billerica, MA).

[3] = tested on: sera of animals infected by M. bovis; assay type: binding, bovine; details: serial twofold dilution of sera
[4] = tested on: sheep sera naturally or experimentally infected with S-type strains of Map; assay: Antibody ELISA with sheep sera infected with S-type strains of Map; assay type: binding; details: control n=15, positive n=39
[5] = tested on: anti-Map antibodies in sera from bovine infected by Map; assay: Antibody ELISA with bovine sera (Map-infected versus healthy controls); assay type: binding; details: for ROC analysis of ELISA antibody response, area under the curve: 60 MAP+ bovine sera and 53 control sera
physchem = details: organic solvents (DMSO, CHCl3, CH2Cl2, MeOH and EtOH)
[6] = PBMCs from infected cows, lipopeptide 1, 5, 10 μg/ml

SMILES | CD25+ B cells response [1, 6] | proliferation of CD25+ CD8 T cells [1, 6] | CD25+ CD4 or CD25+ γδ T cell populations, difference between L3P and L5P ([1]; data not shown) | solubility in water or aqueous buffers | effect of lipopeptide concentration on TNF-α secretion by PBMCs ([2]; P<0.0006) | IFN-γ cytokine response ([2]; 24-hr stimulation) | IL-1β cytokine response ([2]; 24-hr stimulation) | TNF-α cytokine response ([2]; 24-hr stimulation) | cross-reaction with sera of animals infected by M. bovis [3] | immunodetection of L5P by sheep sera (anti-L5P antibodies) [4] | ROC analysis of ELISA antibody response, area under the curve ([5]; antigen in ethanol) | solubility (physchem) [µg/mL] | ROC analysis of ELISA antibody response, area under the curve ([5]; antigen in PBS) | ELISA antibody response against the lipid moiety of L5P, discrimination of control from infected animals ([5]; lipid solubilized in ethanol, bovine sera)
CCCCCCCCCCCCCCCCCCCC(=O)N[C@H](Cc1ccccc1)C(=O)N(C)[C@H](C(=O)N[C@H](C(=O)N[C@@H](Cc1ccccc1)C(=O)N[C@@H](C)C(=O)OC)[C@@H](C)CC)C(C)C [L5P] (Arachidoyl-[dF][NMeV]IFA-OMe) | stronger response compared to L3P | remained static | No significant differences | insoluble | dose-dependent effect | elicited cytokine responses | elicited cytokine responses | elicited cytokine responses | does not cross-react | less than half of the sheep sera do not appear to contain anti-L5P antibodies | 0.97 | < 1000 | – | –
CCC(C)C(NC(=O)C(C(C)C)N(C)C(=O)C(N)Cc1ccccc1)C(=O)NC(Cc1ccccc1)C(=O)NC(C)C(=O)NCCCOCCOCCOCCCNC(=O)COCC(=O)O (stereo not drawn) [L5P^H2O] (H-F[NMeV]IFA-TtdDga; configuration not given here) | – | – | – | – | – | – | – | – | – | – | 0.9313 | – | 0.9453 | –
CCCCCCCCCCCCCCCCCCCC(=O)O [lipid moiety, eicosanoic acid] | – | – | – | – | – | – | – | – | – | – | – | – | – | does not discriminate control from infected animals
